Source: the NIST ThermoML archive (doi:10.1021/je5007696)

Assay: xn = mol fraction of the nth substance listed
Details: 100 kPa, Liquid; for viscosity: Concentric cylinders viscometry; for mass density: Vibrating tube method

CCC(C)=O [butanone] + CCCCO
Details | mass density [kg/m3] | viscosity [mPa·s]
288.15 K, x1 = 0.0997 | 813.126 | 2.293
288.15 K, x1 = 0.1999 | 812.877 | 1.645
288.15 K, x1 = 0.3003 | 812.583 | 1.257
288.15 K, x1 = 0.4008 | 812.253 | 1.009
288.15 K, x1 = 0.5003 | 811.906 | 0.8332
288.15 K, x1 = 0.6001 | 811.555 | 0.7013
288.15 K, x1 = 0.6992 | 811.203 | 0.5975
288.15 K, x1 = 0.7991 | 810.843 | 0.5248
288.15 K, x1 = 0.899 | 810.477 | 0.4708
288.15 K, x1 = 1 | 810.133 | 0.4306
293.15 K, x1 = 0.0997 | 809.157 | 2.034
293.15 K, x1 = 0.1999 | 808.747 | 1.483
293.15 K, x1 = 0.3003 | 808.3 | 1.147
293.15 K, x1 = 0.4008 | 807.824 | 0.9297
293.15 K, x1 = 0.5003 | 807.337 | 0.7756
293.15 K, x1 = 0.6001 | 806.848 | 0.6603
293.15 K, x1 = 0.6992 | 806.362 | 0.5696
293.15 K, x1 = 0.7991 | 805.875 | 0.4997
293.15 K, x1 = 0.899 | 805.39 | 0.4505
293.15 K, x1 = 1 | 804.926 | 0.4136
298.15 K, x1 = 0.0997 | 805.165 | 1.814
298.15 K, x1 = 0.1999 | 804.592 | 1.343
298.15 K, x1 = 0.3003 | 803.992 | 1.051
298.15 K, x1 = 0.4008 | 803.369 | 0.8588
298.15 K, x1 = 0.5003 | 802.741 | 0.7227
298.15 K, x1 = 0.6001 | 802.114 | 0.6178
298.15 K, x1 = 0.6992 | 801.494 | 0.5358
298.15 K, x1 = 0.7991 | 800.878 | 0.475
298.15 K, x1 = 0.899 | 800.271 | 0.4313
298.15 K, x1 = 1 | 799.695 | 0.3962
303.15 K, x1 = 0.0997 | 801.147 | 1.626
303.15 K, x1 = 0.1999 | 800.407 | 1.221
303.15 K, x1 = 0.3003 | 799.653 | 0.9652
303.15 K, x1 = 0.4008 | 798.884 | 0.7945
303.15 K, x1 = 0.5003 | 798.115 | 0.6753
303.15 K, x1 = 0.6001 | 797.349 | 0.5823
303.15 K, x1 = 0.6992 | 796.597 | 0.5093
303.15 K, x1 = 0.7991 | 795.852 | 0.4521
303.15 K, x1 = 0.899 | 795.126 | 0.4114
303.15 K, x1 = 1 | 794.435 | 0.3793
308.15 K, x1 = 0.0997 | 797.097 | 1.465
308.15 K, x1 = 0.1999 | 796.195 | 1.115
308.15 K, x1 = 0.3003 | 795.288 | 0.8886
308.15 K, x1 = 0.4008 | 794.369 | 0.7364
308.15 K, x1 = 0.5003 | 793.457 | 0.6314
308.15 K, x1 = 0.6001 | 792.551 | 0.5453
308.15 K, x1 = 0.6992 | 791.666 | 0.48
308.15 K, x1 = 0.7991 | 790.793 | 0.4294
308.15 K, x1 = 0.899 | 789.946 | 0.3918
308.15 K, x1 = 1 | 789.142 | 0.3626
313.15 K, x1 = 0.0997 | 793.009 | 1.327
313.15 K, x1 = 0.1999 | 791.945 | 1.022
313.15 K, x1 = 0.3003 | 790.885 | 0.8197
313.15 K, x1 = 0.4008 | 789.819 | 0.6843
313.15 K, x1 = 0.5003 | 788.763 | 0.5907
313.15 K, x1 = 0.6001 | 787.719 | 0.5143
313.15 K, x1 = 0.6992 | 786.701 | 0.4552
313.15 K, x1 = 0.7991 | 785.7 | 0.4073
313.15 K, x1 = 0.899 | 784.731 | 0.3723
313.15 K, x1 = 1 | 783.814 | 0.3461
318.15 K, x1 = 0.0997 | 788.88 | 1.206
318.15 K, x1 = 0.1999 | 787.652 | 0.939
318.15 K, x1 = 0.3003 | 786.442 | 0.7575
318.15 K, x1 = 0.4008 | 785.228 | 0.637
318.15 K, x1 = 0.5003 | 784.03 | 0.5532
318.15 K, x1 = 0.6001 | 782.849 | 0.485
318.15 K, x1 = 0.6992 | 781.696 | 0.43
318.15 K, x1 = 0.7991 | 780.568 | 0.386
318.15 K, x1 = 0.899 | 779.478 | 0.3532
318.15 K, x1 = 1 | 778.451 | 0.3303
323.15 K, x1 = 0.0997 | 784.708 | 1.096
323.15 K, x1 = 0.1999 | 783.318 | 0.8726
323.15 K, x1 = 0.3003 | 781.954 | 0.7156
323.15 K, x1 = 0.4008 | 780.593 | 0.6041
323.15 K, x1 = 0.5003 | 779.253 | 0.5225
323.15 K, x1 = 0.6001 | 777.934 | 0.4597
323.15 K, x1 = 0.6992 | 776.652 | 0.4101
323.15 K, x1 = 0.7991 | 775.398 | 0.369
323.15 K, x1 = 0.899 | 774.188 | 0.3356
323.15 K, x1 = 1 | 773.047 | 0.3168

COC(=O)CCCCC(=O)OC [dimethyl 1,6-hexanedioate] + CCC(C)=O
viscosity [mPa·s]
Details | x1 = 0.1002 | x1 = 0.2002 | x1 = 0.3002 | x1 = 0.4004 | x1 = 0.5001 | x1 = 0.5999 | x1 = 0.6998 | x1 = 0.7994 | x1 = 0.8997 | x1 = 1
288.15 K | 0.5707 | 0.7368 | 0.9419 | 1.183 | 1.467 | 1.802 | 2.191 | 2.636 | 3.16 | 3.751
293.15 K | 0.5434 | 0.6952 | 0.8803 | 1.096 | 1.347 | 1.64 | 1.974 | 2.353 | 2.794 | 3.289
298.15 K | 0.5166 | 0.6563 | 0.824 | 1.019 | 1.242 | 1.498 | 1.79 | 2.12 | 2.491 | 2.91
303.15 K | 0.4912 | 0.6199 | 0.7742 | 0.9509 | 1.15 | 1.38 | 1.635 | 1.921 | 2.241 | 2.604
308.15 K | 0.4667 | 0.5865 | 0.7277 | 0.8892 | 1.069 | 1.274 | 1.5 | 1.75 | 2.033 | 2.342
313.15 K | 0.4425 | 0.555 | 0.6853 | 0.8331 | 0.9961 | 1.181 | 1.382 | 1.604 | 1.851 | 2.121
318.15 K | 0.4199 | 0.525 | 0.6465 | 0.7827 | 0.9324 | 1.098 | 1.279 | 1.476 | 1.695 | 1.933
323.15 K | 0.4037 | 0.502 | 0.6165 | 0.7425 | 0.883 | 1.036 | 1.202 | 1.381 | 1.577 | 1.79
